Like-named read-outs stand apart in the source and are kept apart here.
Legend:
[1] = test system: L. braziliensis axenic amastigote forms; assay: Axenic amastigote forms assay; assay type: cell-based, Leishmania braziliensis; conditions: for IC50: 48 hours per method (72 h); for SI Axenic amastigote forms: IC50 macrophages/IC50 parasite form; for number of times that compound SI exceeds the reference drug SI, Axenic amastigote forms: in brackets, reference Glucantime
Description: (§1) Axenic amastigotes forms of L. infantum and L. braziliensis were cultured following the methodology described previously by Moreno et al.. Thus, promastigote transformation to amastigotes was obtained after three days of culture in M199 medium (Invitrogen, Leiden, The Netherlands) supplemented with 10% heat-inactivated FCS, 1 g/L β-alanine, 100 mg/L L-asparagine, 200 mg/L sacarose, 50 mg/L sodium pyruvate, 320 mg/L malic acid, 40 mg/L fumaric acid, 70 mg/L succinic acid, 200 mg/L α-ketoglutaric acid, 300 mg/L citric acid, 1.1 g/L sodium bicarbonate, 5 g/L MES, 0.4 mg/L hemin, and 10 mg/L gentamicin pH 5.4 at 37°C. The effect of each compound against axenic amastigotes forms was tested at 48 hours using a Neubauer haemocytometric chamber. The antileishmanial effect is expressed as the IC50.

[2] = test system: L. infantum intracellular amastigote forms; assay: Intracellular amastigote forms assay in J774.2 macrophages; assay type: cell-based, Leishmania infantum; conditions: for IC50: L. infantum in J774.2 macrophages, 72 h; for SI Intracellular amastigote forms / number of times that compound SI exceeds the reference drug SI, Intracellular amastigote forms: L. infantum; for SI Intracellular amastigote forms: IC50 macrophages/IC50 parasite form; for number of times that compound SI exceeds the reference drug SI, Intracellular amastigote forms: in brackets, reference Glucantime
Description: (§2) Cells were seeded at a density of 1 × 10^4 cells/well in 24-well microplates (Nunc) with rounded coverslips on the bottom and cultured for 2 days. Afterwards the cells were infected in vitro with promastigote forms of L. infantum and L. braziliensis, at a ratio of 10 : 1 during 24 hours. The non-phagocytosed parasites were removed by washing, and then the drugs (at 1, 10, 25, 50, 100 μM) were added. Macrophages with the drugs were incubated for 72 hours at 37°C in 5% CO2.
(§3) Drug activity was determined on the basis of number of amastigotes in treated and untreated cultures in methanol-fixed and Giemsa-stained preparations. The number of amastigotes was determined by analyzing 200 host cells distributed in randomly chosen microscopic fields. The antileishmanial effect is expressed as the IC50 values are the means of three separate determinations.

J774.2 macrophages = assay: Cytotoxicity test for macrophages (flow cytometry); assay type: cell-based, BALB/c rat; conditions: J774.2 macrophages after 72 h of culture, read-out: Macrophage toxicity IC50
Description: J774.2 macrophages (ECACC number 91051511) were originally obtained from a tumour in a female BALB/c […] in 1968. The cytotoxicity test for macrophages was performed according to the methodology of González et al.. After 72 hours of treatment, cell viability was determined by flow cytometry. Thus, 100 μL/well of propidium iodide solution ([…]) was added and incubated for 10 min at 28°C in darkness. Afterwards, 100 μL/well of fluorescein diacetate (100 ng/mL) was added and incubated under the same conditions. Finally, the cells were recovered by centrifugation at 400 g for 10 min and the precipitate washed with phosphate buffered saline (PBS). Flow cytometric analysis was performed with a FACSVantage flow cytometer (Becton Dickinson). The percentage viability was calculated in comparison with the control culture. The IC50 was calculated using linear regression analysis from the Kc values of the concentrations employed.

L. infantum = assay: Infection assay in J774.2 macrophages; assay type: cell-based, Leishmania infantum; conditions: IC25 concentration; for infection rate decrease, percentage of inhibition capacity: with respect to control
Description: (§4) J774.2 macrophage cells were grown under the same conditions expressed in amastigote forms assay during two days. Afterwards, the cells were infected in vitro with promastigote forms of L. infantum and L. braziliensis, at a ratio of 10 : 1. The drugs (IC25 concentrations) were added immediately after infection and were incubated for 12 hours at 37°C in 5% CO2. The nonphagocytosed parasites and the drugs were removed by washing, and then the infected cultures were grown for 10 days in fresh medium. Fresh culture medium was added every 48 h. The drug activity was determined from the percentage of infected cells and the number of amastigotes per infected cell (in treated and untreated cultures) in methanol-fixed and Giemsa-stained preparations. The percentage of infected cells and the mean number of amastigotes per infected cell were determined by analyzing 200 host cells distributed in randomly chosen microscopic fields. Values are the average of three separate determinations.

[3] = test system: L. braziliensis promastigotes; assay: Ultrastructural alterations (TEM); assay type: cell-based, Leishmania braziliensis; conditions: IC25, 96 hours
Description: (§5) The parasites were cultured at a density of 5 × 10^5 cells/mL in MTL medium, and the cultures contained drugs at the IC25 concentration.
(§6) After 96 hours, those cultures were centrifuged at 400 g for 10 min, and the pellets produced were washed in PBS and then mixed with 2% (v/v) P-formaldehyde-glutaraldehyde in 0.05 M cacodylate buffer (pH 7.4) for 4 hours at 4°C. After that, the pellets were prepared for TEM employing the technique of González et al..

L. braziliensis = assay: Infection assay in J774.2 macrophages; assay type: cell-based, Leishmania braziliensis; conditions: IC25 concentration; for infection rate decrease, percentage of inhibition capacity: with respect to control
Description: as §4

[4] = test system: L. infantum promastigotes; assay: Metabolite excretion (1H-NMR); assay type: cell-based, Leishmania infantum; conditions: IC25, 96 hours, vs control
Description: Cultures of L. infantum and L. braziliensis promastigotes (initial concentration 5 × 10^5 cells/mL) received IC25 concentrations of the compounds (except for control cultures). After incubation for 96 hours at 28°C, the cells were centrifuged at 400 g for 10 min. Then supernatants were collected to determine the excreted metabolites using ^1H-NMR, and, eventually, chemical displacements were expressed in parts per million (ppm), using sodium 2,2-dimethyl-2-silapentane-5-sulphonate as the reference signal. The chemical displacements used to identify the respective metabolites were consistent with those described by Fernández-Becerra et al.

[5] = test system: L. infantum promastigote forms; assay: Promastigote forms assay; assay type: cell-based, Leishmania infantum; conditions: for IC50: 72 h; for SI Promastigote forms: IC50 macrophages/IC50 parasite form; for times SI exceeds the reference drug SI (all forms): extracellular and intracellular forms; for times SI exceeds the reference drug SI (all forms) / number of times that compound SI exceeds the reference drug SI, Promastigote forms: reference Glucantime; for number of times that compound SI exceeds the reference drug SI, Promastigote forms: in brackets
Description: (§7) The compounds obtained were dissolved in the culture medium, at dosages of 100, 50, 25, 10, and 1 μM. The effects of each compound against promastigote forms were tested at 72 hours using a Neubauer haemocytometric chamber. The antileishmanial effect is expressed as the IC50, that is, the concentration required to give 50% inhibition, calculated by linear regression analysis from the Kc values of the concentrations employed.

[6] = test system: L. infantum axenic amastigote forms; assay: Axenic amastigote forms assay; assay type: cell-based, Leishmania infantum; conditions: for IC50: 48 hours per method (72 h); for SI Axenic amastigote forms: IC50 macrophages/IC50 parasite form; for number of times that compound SI exceeds the reference drug SI, Axenic amastigote forms: in brackets, reference Glucantime
Description: as §1

[7] = test system: L. braziliensis promastigote forms; assay: Promastigote forms assay; assay type: cell-based, Leishmania braziliensis; conditions: for IC50: 72 h; for SI Promastigote forms: IC50 macrophages/IC50 parasite form; for number of times that compound SI exceeds the reference drug SI, Promastigote forms: in brackets, reference Glucantime
Description: as §7

[8] = test system: L. braziliensis intracellular amastigote forms; assay: Intracellular amastigote forms assay in J774.2 macrophages; assay type: cell-based, Leishmania braziliensis; conditions: for IC50: L. braziliensis in J774.2 macrophages, 72 h; for SI Intracellular amastigote forms / number of times that compound SI exceeds the reference drug SI, Intracellular amastigote forms: L. braziliensis; for SI Intracellular amastigote forms: IC50 macrophages/IC50 parasite form; for number of times that compound SI exceeds the reference drug SI, Intracellular amastigote forms: in brackets, reference Glucantime
Description: as §2, §3

[9] = test system: L. infantum promastigotes; assay: Ultrastructural alterations (TEM); assay type: cell-based, Leishmania infantum; conditions: IC25, 96 hours
Description: as §5, §6

Row | Molecule | IC50 [1] [µM] | SI Axenic amastigote forms [1] | number of times that compound SI exceeds the reference drug SI, Axenic amastigote forms [1] | IC50 [2] [µM] | SI Intracellular amastigote forms [2] | number of times that compound SI exceeds the reference drug SI, Intracellular amastigote forms [2] | IC50 (J774.2 macrophages) [µM] | decrease of average number of amastigotes per infected macrophage cell (L. infantum) [%] | infection rate decrease, percentage of inhibition capacity (L. infantum) [%] | decrease of average number of amastigotes per infected macrophage cell (L. braziliensis) [%] | infection rate decrease, percentage of inhibition capacity (L. braziliensis) [%] | SI Promastigote forms [5] | times SI exceeds the reference drug SI (all forms) [5] | number of times that compound SI exceeds the reference drug SI, Promastigote forms [5] | SI Axenic amastigote forms [6] | number of times that compound SI exceeds the reference drug SI, Axenic amastigote forms [6] | SI Promastigote forms [7] | number of times that compound SI exceeds the reference drug SI, Promastigote forms [7] | SI Intracellular amastigote forms [8] | number of times that compound SI exceeds the reference drug SI, Intracellular amastigote forms [8] | also measured
1 | paeonoside [Compound 4] | 23.7 ± 2.1 | 42.2 | 84 | 31.4 ± 2 | 31.8 | 64 | > 1000 | 37 | 77 | 61 | 68 | 39.8 | more than 50 times | 50 | 37.2 | 62 | 35.6 | 59 | 30.6 | 61 | ultrastructural alterations by TEM [3]: expansion of the kinetoplast, which appeared swollen; change in excreted catabolites [4]: an increase in the excretion of succinate, and acetate, followed by malate, alanine, lactate and ethanol; IC50 [5]: 25.1 ± 1.9 µM; IC50 [6]: 26.9 ± 1.4 µM; IC50 [7]: 28.1 ± 5.2 µM; IC50 [8]: 32.7 ± 2.1 µM; ultrastructural alterations by TEM [9]: many of the parasites appeared dead, while another showed pronounced vacuolization
2 | CC(=O)OC[C@H]1O[C@@H](Oc2c(-c3ccc(OC(C)=O)c(OC(C)=O)c3)oc3cc(O[C@@H]4O[C@@H](C)[C@H](OC(C)=O)[C@@H](OC(C)=O)[C@H]4OC(C)=O)cc(OC(C)=O)c3c2=O)[C@H](OC(C)=O)[C@@H](OC(C)=O)[C@@H]1OC(C)=O [Compound 9, petiolaroside decacetate] | – | 19.9 | 40 | – | 15.8 | 32 | – | – | – | – | – | 21.5 | < 50 times | 27 | 22.8 | 38 | 15.2 | 25 | 23.3 | 47 | IC50 ([1]; Leishmania braziliensis): 24.6 ± 1.3 µM; IC50 ([2]; Leishmania infantum): 31 ± 1.7 µM; IC50 (J774.2 macrophages; Mus musculus, J774.2, 72 h): 490 ± 22.4 µM; IC50 ([5]; Leishmania infantum): 22.8 ± 1.7 µM; IC50 ([6]; Leishmania infantum): 21.5 ± 0.9 µM; IC50 ([7]; Leishmania braziliensis): 32.3 ± 3.3 µM; IC50 ([8]; Leishmania braziliensis): 21 ± 1.3 µM
3 | meglumine antimoniate [Glucantime, reference compound] | 30.4 ± 6.1 | 0.5 | – | 30 ± 2.7 | 0.5 | – | 15.2 ± 1.3 | 12 | 63 | 33 | 58 | 0.8 | – | – | 0.6 | – | 0.6 | – | – | – | IC50 [5]: 18 ± 3.1 µM; IC50 [6]: 24.2 ± 2.6 µM; IC50 [7]: 25.6 ± 1.6 µM; IC50 [8]: 31.1 ± 3 µM
4 | CC(=O)O[C@H]1[C@H](Oc2c(-c3ccc(O)cc3)oc3cc(O[C@@H]4O[C@H](CO)[C@@H](O)[C@H](O)[C@H]4O)cc(O)c3c2=O)O[C@H](CO)[C@@H](O)[C@@H]1O [Compound 5, 2′′-acetylpaeonoside] | – | – | – | – | 26.9 | 54 | – | 45 | 79 | 72 | 79 | 40.7 | more than 50 times | 51 | 33.6 | 56 | 29.3 | 49 | 20.0 | 40 | IC50 ([1]; Leishmania braziliensis): 19.4 ± 0.9 µM; IC50 ([2]; Leishmania infantum): 37.2 ± 3.5 µM; ultrastructural alterations by TEM [3]: no significant changes compared to the control; change in excreted catabolites [4]: an increase in the excretion of succinate, and acetate, followed by malate, alanine, lactate and ethanol; IC50 ([5]; Leishmania infantum): 24.6 ± 3.7 µM; IC50 ([6]; Leishmania infantum): 29.8 ± 2.2 µM; IC50 ([7]; Leishmania braziliensis): 34.1 ± 6.6 µM; IC50 ([8]; Leishmania braziliensis): 50.9 ± 6.2 µM; ultrastructural alterations by TEM [9]: produced similar effects

Reference: PMC3366211, “Leishmanicidal Activity of Nine Novel Flavonoids from Delphinium staphisagria” (The Scientific World Journal, 2012)
